# Legend:
# [1] = system: CDK4; test: pCDK4 Thr172 immunofluorescence and remodeling in primary cardiomyocytes; format: cell-based
# From the text: (§1) Post treatment, the cells were washed, fixed, and were subjected to sequential staining of primary antibodies a Actinin and phospho-CDK4 (Thr172). The images were acquired using the Zeiss AxioVision SE64 Imaging software and analyzed using the ImageJ2 software.
# Immunofluorescence was used to detect α-actinin, pCDK4 Thr172, and nuclei were stained with DAPI. […] The nuclear fluorescent intensity of pCDK4 Thr172 using the ImageJ software. The data are represented as Mean±Standard deviation.
# [2] = system: collagen type I; test: Collagen type I immunofluorescence in NRVM; format: cell-based, neonatal rat
# Method: Primary NRVMs were seeded at a density of 2.7×10^5 cells directly onto 25 mm diameter collagen-coated glass coverslips. The treatments with control (PE) and drugs LY283519 were performed for 24 hours. […] Post treatment, the cells were washed three times in PBS followed by fixation in 4% paraformaldehyde for 30 min. Cells were then permeabilized in blocking buffer (1% bovine serum albumin (BSA), 2% normal goat serum, 0.4% Tx-100 in PBS) for 15 min and were incubated for 2 h at room temperature with primary a Actinin and collagen type I antibody, followed by three successive washes in PBS in a humidified chamber. Cells were then blocked again in blocking buffer for 15 min followed by a 1-hour incubation in fluorescently conjugated secondary antibody. Cells were then washed again in PBS and the nuclei were counterstained with 4′,6-diamidino-2-phenylindole (DAPI). The cells were mounted onto microscope slides with Dako Cytomation fluorescent mounting medium (Dako). Digital fluorescent images were obtained using the Zeiss AxioVision SE64 Imaging software and analyzed using ImageJ2 software.
# [3] = system: neonatal rat ventricular cardiomyocytes; test: Calcium transients (Fura2-AM) in neonatal rat ventricular cardiomyocytes; format: cell-based; details: for contractility / contractile function: inferred from peak calcium transient, AUC and time to peak
# Method: Method: Freshly isolated wildtype neonatal rat ventricular cardiomyocytes were plated onto laminin coated glass coverslides, rinsed once and then loaded with 1 μM Fura2-AM (Life Technologies) for 15 min at 37 °C. After washing the cells thrice with Tyrode solution, measuring chambers were transferred onto a Nikon Eclipse TE2000-U microscope equipped with a fluorescence detection system (IonOptix). Ca^2+ transient values were recorded according to the corresponding FRET experiments. F340/F380 values in Fura2-AM experiments were calculated from the ratios of 510 nm emission light measured at 340 and 380 nm excitations.
# [4] = system: cardiomyocytes; test: Overall observation on remodeling of treated cardiomyocytes; format: cell-based
# [5] = system: Cyclin D1/CDK4; details: role: inhibitor; cited from earlier work
# [6] = system: CDK6; details: role: inhibitor; cited from earlier work
# [7] = system: Rb phosphorylation; details: cited from earlier work
# [8] = system: aurora kinase B; test: pAurkB S727 immunofluorescence and remodeling in NRVM; format: cell-based, neonatal rat; details: PE 100 μM
# Method: Immunofluorescence was performed to validate and assess the effect of aurora B kinase inhibitor on cardiomyocyte remodeling. NRVMs were plated at a density of 2.5×10^4 cells onto 25 mm diameter collagen coated coverslip. Primary cardiomyocytes were incubated with control serum-free medium (Ctrl, SF medium), hCT1 (0.5 nM), PE (100 μM), AZD1152-HQPA (1.5 μM) and assessed for aurora kinase B activation using pAurkB s727 antibody staining. The cells were treated with a combination of PE and AZD1152 HQPA where the cells were stimulated with the drug for 4 hours following the PE treatment for 24 hours.
# as §1, with “phospho-AurkB (S727).” for “phospho-CDK4 (Thr172).”, “software. Immunofluorescence was used to detect α-actinin, pAurkb S727, and nuclei were stained with DAPI.” for “software.”
# [9] = system: phospho-Histone 3 (Ser10); test: phospho-Histone 3 (pH3 Ser10) staining in NRVM; format: cell-based, neonatal rat; details: PE
# Method: A one-way ANOVA test performed to assess statistical significance across treatment groups.
# The effect of AZD1152-HQPA on cardiac remodeling was further validated using the phospho-Histone 3 (pH3 Ser10) staining which is the downstream target of aurora kinase B. The NRVMs were plated at a density of 2.5×10^4 cells onto 25 mm diameter collagen coated coverslip. The cells were treated with controls (hCT1, PE), AZD1152-HQPA followed by a combination of PE and AZD1152-HQPA.
# as §1, with “phospho-Histone 3 (Ser10).” for “phospho-CDK4 (Thr172).”, “ImageJ” for “ImageJ2”, “software. […] The data are represented as Mean±Standard deviation.” for “software.”
# [10] = system: phenylephrine induced left ventricular hypertrophy; details: LV; HF markers; cited from earlier work
# [11] = system: cardiac fibrosis; details: phenylephrine, reported; cited from earlier work
# [12] = single treatment, 24 hours, vs control
AurkB activation [8],Compound,CDK4 activation ([1]; LY2835219 1.5 μM),pathological effect of PE ([1]; drug for 4 hr following PE treatment for 24 hours),expression of collagen type I ([2]; PE for 24 hrs followed by LY2835219 for 24 hrs),"expression of collagen type I [2, 12]","area under the curve (AUC) of calcium transient ([3]; compared to control, FIG. 11)","calcium transient levels ([3]; compared to control, FIG. 11)",contractility / contractile function [3],cardiomyocyte remodeling [4],inhibition of Cyclin D1/CDK4 [5],inhibition of CDK6 [6],Rb phosphorylation [7],cell cycle arrest [7],cardiomyocyte remodeling [8],pH3 Ser10 staining [9],CDK4 activation ([1]; PE 100 μM),cardiomyocyte remodeling ([1]; PE 100 μM),"time to peak calcium transient ([3]; compared to control, FIG. 11)",effect of phenylephrine on left ventricle (background) [10],pathways involved in cardiac fibrosis (background) [11]
–,CCN1CCN(Cc2ccc(Nc3ncc(F)c(-c4cc(F)c5nc(C)n(C(C)C)c5c4)n3)nc2)CC1 [LY2835219],inhibited CDK4 activation,able to reverse the pathological effect of PE,decreased expression of collagen type I,decrease in expression of collagen type I,increased AUC compared to control,increase in calcium transient levels compared to control,improved contractility by modest increase in peak calcium transient levels and AUC with modest decrease in time to attain those peak levels,"adaptive and compensatory remodeling that resembles a physiologic growth response, adding sarcomeres in series",low nanomolar potency,low nanomolar potency,inhibits Rb phosphorylation,G1 arrest,–,–,–,–,–,–,–
AurkB activation,"CNC[C@H](O)c1cccc(O)c1 [PE, phenylephrine]",–,–,–,increased expression of type I collagen compared to control,much higher AUC,aberrant increase calcium transient levels,defective contractile function of cardiomyocytes,–,–,–,–,–,concentric hypertrophic remodeling was observed,Increased pH3 Ser10 staining,CDK4 activation,concentric hypertrophic remodeling was observed,decreased time to peak calcium transient,"myocardial hypertrophy of the LV, increased LV weight, systolic dysfunction, and increased expression of HF markers atrial natriuretic peptide and brain natriuretic peptide",stimulate pathways involved in cardiac fibrosis

# Source: patent publication US20260345605A1, “THERAPEUTIC AGENTS FOR HEART FAILURE” (Ottawa Hospital Research Institute, priority 2023, published 2026)
